The values below come from US10849956B2, “Glycopeptide compositions” (priority 2014, dated 2020).

In data set [1] the test system is Streptococcus pnemoniae ATCC 49619. Nature of the data set: Antibacterial susceptibility testing, broth dilution method (CLSI). The class given is cell-based. How it is done:
(§1) Testing was performed using broth dilution method according to Clinical and Laboratory Standards Institute (CLSI) guidelines M100-S23/S24; M07-A9, the disclosure of which is herein incorporated by reference.
(§2) The antibiotic activity of eight aqueous pharmaceutical compositions was determined and compared to the activity of the injectable reference finished product, Vancocin, manufactured by Flynn Pharma Ltd. Antibiotic activity was determined against quality control strains: Staphylococcus aureus ATCC 29213, Enterococcus faecalis ATCC 29212 and Streptococcus pnemoniae ATCC 49619.
A general note: Dilution methods test growth across graded concentrations, often in twofold steps.

For data set [2] the following is noted: cited from earlier work.
The test system of data set [3] is Enterococcus faecalis ATCC 29212. Nature of the data set: Antibacterial susceptibility testing, broth dilution method (CLSI). The settings on record: ATCC29212, Table 6, solutions stored at 25 degrees Celsius for the test period in days indicated. The class given is cell-based. The method, then: as §1, §2
Data set [4] concerns Staphylococcus aureus ATCC 29213. The data set is described as above. The class given is cell-based. Conditions: ATCC29213, Table 6, solutions stored at 25 degrees Celsius for the test period in days indicated. How it is done: as §1, §2
Setting [5] is: multiple dosing of 500 mg Vancomycin infused over 30 minutes.

≈ marks a conversion by molar mass, not a printed value. Read-outs that look alike come from different tables or passages of the source.

With `CN[C@H](CC(C)C)C(=O)N[C@H]1C(=O)N[C@@H](CC(N)=O)C(=O)N[C@H]2C(=O)N[C@H]3C(=O)N[C@H](C(=O)N[C@H](C(=O)O)c4cc(O)cc(O)c4-c4cc3ccc4O)[C@H](O)c3ccc(c(Cl)c3)Oc3cc2cc(c3O[C@@H]2O[C@H](CO)[C@@H](O)[C@H](O)[C@H]2O[C@H]2C[C@](C)(N)[C@H](O)[C@H](C)O2)Oc2ccc(cc2Cl)[C@H]1O` [Vancomycin USP standard, Vancomycin], the MIC in data set [1] (read-out: Streptococcus pneumoniae MIC (μg/mL)) came to 0.125 µg/mL (≈ 0.0863 µM).

For the compound `CN[C@H](CC(C)C)C(=O)N[C@H]1C(=O)N[C@@H](CC(N)=O)C(=O)N[C@H]2C(=O)N[C@H]3C(=O)N[C@H](C(=O)N[C@@H](C(=O)O)c4cc(O)cc(O)c4-c4cc3ccc4O)[C@H](O)c3ccc(c(Cl)c3)Oc3cc2cc(c3O[C@@H]2O[C@@H](CO)[C@@H](O)[C@H](O)[C@@H]2O[C@@H]2C[C@](C)(N)[C@H](O)[C@@H](C)O2)Oc2ccc(cc2Cl)[C@H]1O` [Vancomycin], the “mean plasma concentration immediately after infusion” value in data set [2] (intravenous infusion of 1 gram Vancomycin (15 mg/kg) over 60 minutes) was 63 micrograms/mL. Further, in data set [2] (setting [5]), the “mean plasma concentration at the completion of infusion” value is “about 49 microgram/mL”, the “mean plasma concentration six hours after infusion” value is given as “about 10 microgram/mL” and the “mean plasma concentration two hours after infusion” value is listed as “about 19 microgram/mL”.

With `CC1(C)S[C@@H]2[C@H](NC(=O)[C@H](N)c3ccc(O)cc3)C(=O)N2[C@H]1C(=O)O` [Amoxicillin USP standard, Amoxicillin], the MIC in data set [3] amounted to 0.5 µg/mL (≈ 1.37 µM); in data set [4], 1 µg/mL (≈ 2.74 µM); in data set [1] (Table 6, solutions stored at 25 degrees Celsius for the test period in days indicated, read-out: Streptococcus pneumoniae MIC), 0.06 µg/mL (≈ 0.164 µM).
